Source: US20150065347A1, “CO-CRYSTALS OF DICAMBA AND A CO-CRYSTAL FORMER B” (priority 2012, published 2015)
Converted amounts (≈) assume the structure as drawn.

Columns and labels:
[1] = Isothermal TGA volatility study; assay type: physicochemical; details: isothermal TGA at 100° C., weight loss monitored for 12 hours, nitrogen flow
Procedure: TG/DTA measurement was carried out on a Seiko TG/DTA 7200 instrument. An open aluminium pan was used and the measurement was carried out under nitrogen flow with a sample weight of 5 to 10 mg. The isothermal TGA for volatility studies were performed at 100° C. and the weight loss was monitored for 12 hours.

[2] = Water solubility of the co-crystals (slurry equilibration, HPLC); assay type: physicochemical; details: water suspension (slurry), thermodynamic from solid; water suspensions slurried for 24 hours, filtered, liquid phase by HPLC, room temperature
Procedure: The determination of the amount of the actives in solution was performed on HPLC ACQUITY (Water) system, equipped with PDA—230 nm UV detector and Sample Manager auto-injector. Waters' Enpower software was used to record the chromatograms and to calculate the chromatographic parameters. […] Injection volume was set 1 μL by auto injector. The analysis were performed with rate flux of 0.4 ml/min. UV detection was performed at 245 nm. Peak identities were confirmed by spectrum and retention time comparison. All the analyses were performed at room temperature. All the analyzed solutions were prepared by slurry equilibration experiments. […] The suspensions were filtered and both solid phase and liquid phase were analyzed by XRPD and HPLC, respectively.

TGA Volatility (% weight loss per minute) [1]: 1.20 × 10^−2 % weight loss per minute | solubility at 24 h [2]: 6550 µg/mL (≈ 29.6 mM)
SMILES: COc1c(Cl)ccc(Cl)c1C(=O)O [Dicamba, 3,6-dichloro-2-methoxybenzoic acid]
